Assays:
Conditions in all cases: read-out: Ki app
Lethal factor = molecular target: T1, Lethal factor (Bacillus anthracis, UniProt P15917)
T1 sequence (P15917 whole entry): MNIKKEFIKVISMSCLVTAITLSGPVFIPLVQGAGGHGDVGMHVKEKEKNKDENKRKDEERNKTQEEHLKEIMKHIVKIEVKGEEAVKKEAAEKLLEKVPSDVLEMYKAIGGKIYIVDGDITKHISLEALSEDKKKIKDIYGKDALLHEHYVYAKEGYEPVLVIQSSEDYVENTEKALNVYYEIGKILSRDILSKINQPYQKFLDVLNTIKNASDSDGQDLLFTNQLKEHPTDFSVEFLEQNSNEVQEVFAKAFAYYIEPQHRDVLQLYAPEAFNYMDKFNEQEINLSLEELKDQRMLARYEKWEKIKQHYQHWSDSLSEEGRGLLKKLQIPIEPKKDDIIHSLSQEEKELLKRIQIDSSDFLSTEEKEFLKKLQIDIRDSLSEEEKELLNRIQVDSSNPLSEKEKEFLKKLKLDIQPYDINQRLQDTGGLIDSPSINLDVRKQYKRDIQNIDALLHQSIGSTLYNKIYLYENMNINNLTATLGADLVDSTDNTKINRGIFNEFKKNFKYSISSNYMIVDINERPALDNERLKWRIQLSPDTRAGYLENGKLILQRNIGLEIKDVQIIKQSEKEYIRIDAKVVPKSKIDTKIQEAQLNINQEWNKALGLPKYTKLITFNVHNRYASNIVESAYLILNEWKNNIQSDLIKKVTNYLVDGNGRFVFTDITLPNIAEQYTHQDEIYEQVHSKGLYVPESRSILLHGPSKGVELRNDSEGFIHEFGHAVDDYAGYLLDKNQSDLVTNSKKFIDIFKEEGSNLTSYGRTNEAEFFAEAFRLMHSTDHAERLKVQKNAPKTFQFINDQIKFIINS

Interstitial collagenase = molecular target: T2, Interstitial collagenase (Homo sapiens, UniProt P03956); test: Activity at MMP1
T2 sequence (P03956 whole entry): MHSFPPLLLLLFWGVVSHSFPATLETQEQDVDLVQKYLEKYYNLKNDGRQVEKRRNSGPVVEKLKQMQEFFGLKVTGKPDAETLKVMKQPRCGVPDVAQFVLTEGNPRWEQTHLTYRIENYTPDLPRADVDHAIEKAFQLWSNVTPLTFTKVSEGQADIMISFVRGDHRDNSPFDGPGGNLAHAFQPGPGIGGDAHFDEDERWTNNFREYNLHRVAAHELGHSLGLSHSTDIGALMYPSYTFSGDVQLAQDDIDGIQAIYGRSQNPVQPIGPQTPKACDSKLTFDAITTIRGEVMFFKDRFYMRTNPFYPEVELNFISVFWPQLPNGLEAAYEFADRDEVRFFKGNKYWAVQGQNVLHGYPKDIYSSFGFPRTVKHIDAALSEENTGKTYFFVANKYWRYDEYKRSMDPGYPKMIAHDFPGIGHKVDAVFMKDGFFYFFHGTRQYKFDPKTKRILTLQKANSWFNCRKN

Stromelysin-1 = Stromelysin-1 (Homo sapiens, UniProt P08254); test: Activity at MMP3
Stromelysin-1, sequence (P08254 whole entry): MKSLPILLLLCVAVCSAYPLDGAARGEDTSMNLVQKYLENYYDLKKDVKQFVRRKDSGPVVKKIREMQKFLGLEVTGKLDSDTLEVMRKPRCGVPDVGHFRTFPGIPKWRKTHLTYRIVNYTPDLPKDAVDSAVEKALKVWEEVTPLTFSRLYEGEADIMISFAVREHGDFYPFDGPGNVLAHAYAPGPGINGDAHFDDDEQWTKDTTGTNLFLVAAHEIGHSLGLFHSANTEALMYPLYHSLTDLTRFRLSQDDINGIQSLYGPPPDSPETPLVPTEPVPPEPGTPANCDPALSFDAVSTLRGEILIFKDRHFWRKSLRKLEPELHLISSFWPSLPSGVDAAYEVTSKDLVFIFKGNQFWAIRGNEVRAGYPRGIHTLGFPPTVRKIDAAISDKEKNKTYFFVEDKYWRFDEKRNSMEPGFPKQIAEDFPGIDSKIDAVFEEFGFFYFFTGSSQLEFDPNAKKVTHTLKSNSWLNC

[1] = molecular target: Matrix metalloproteinase-9 (Homo sapiens, UniProt P14780); test: Activity at MMP9
Matrix metalloproteinase-9, sequence (P14780 whole entry): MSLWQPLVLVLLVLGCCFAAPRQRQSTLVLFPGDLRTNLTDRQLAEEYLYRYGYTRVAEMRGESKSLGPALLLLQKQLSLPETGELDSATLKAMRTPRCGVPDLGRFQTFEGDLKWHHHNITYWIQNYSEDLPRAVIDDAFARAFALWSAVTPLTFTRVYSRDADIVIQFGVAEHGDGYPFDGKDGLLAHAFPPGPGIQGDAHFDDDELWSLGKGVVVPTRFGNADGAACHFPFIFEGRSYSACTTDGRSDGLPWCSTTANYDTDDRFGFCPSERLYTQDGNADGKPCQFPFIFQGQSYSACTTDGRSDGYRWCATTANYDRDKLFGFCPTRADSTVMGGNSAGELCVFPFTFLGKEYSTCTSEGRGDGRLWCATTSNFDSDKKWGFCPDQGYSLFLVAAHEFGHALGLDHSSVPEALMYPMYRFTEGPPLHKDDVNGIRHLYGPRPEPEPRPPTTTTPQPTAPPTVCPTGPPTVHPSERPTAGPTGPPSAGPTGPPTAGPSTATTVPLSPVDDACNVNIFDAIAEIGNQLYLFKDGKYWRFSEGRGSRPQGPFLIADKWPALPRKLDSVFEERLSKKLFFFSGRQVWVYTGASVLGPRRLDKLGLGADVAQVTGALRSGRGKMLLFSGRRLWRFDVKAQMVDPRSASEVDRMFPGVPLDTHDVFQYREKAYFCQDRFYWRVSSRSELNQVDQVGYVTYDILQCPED

[2] = molecular target: Macrophage metalloelastase (Homo sapiens, UniProt P39900); test: Activity at MMP12
Macrophage metalloelastase, sequence (P39900 whole entry): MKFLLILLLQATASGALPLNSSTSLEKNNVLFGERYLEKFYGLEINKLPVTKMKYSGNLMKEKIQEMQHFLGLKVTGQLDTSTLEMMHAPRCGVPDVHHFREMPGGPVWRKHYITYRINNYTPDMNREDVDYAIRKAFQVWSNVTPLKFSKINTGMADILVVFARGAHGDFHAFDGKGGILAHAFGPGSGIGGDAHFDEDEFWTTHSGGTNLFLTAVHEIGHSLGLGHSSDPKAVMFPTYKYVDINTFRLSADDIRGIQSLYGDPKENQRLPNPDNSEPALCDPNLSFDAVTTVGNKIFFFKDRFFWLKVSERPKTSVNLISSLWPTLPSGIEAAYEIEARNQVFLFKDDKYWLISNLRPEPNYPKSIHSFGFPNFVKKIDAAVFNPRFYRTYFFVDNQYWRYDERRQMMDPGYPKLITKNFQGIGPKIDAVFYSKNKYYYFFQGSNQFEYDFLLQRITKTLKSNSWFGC

[3] = molecular target: Matrix metalloproteinase-14 (Homo sapiens, UniProt P50281); test: Activity at MMP14

Row | SMILES | Ki (Lethal factor) [µM] | Ki (Interstitial collagenase) [µM] | Ki (Stromelysin-1) [µM] | Ki [1] [µM] | Ki [2] [µM] | Ki [3] [µM]
1 | NC(N)=NC[C@H]1O[C@H](O[C@H]2[C@H](O)[C@@H](O)[C@H](N=C(N)N)C[C@@H]2N)[C@H](N)[C@@H](O)[C@@H]1O | 10.2 | – | – | – | – | –
2 | NC[C@H]1O[C@H](O[C@H]2[C@H](O)[C@@H](O)[C@H](N=C(N)N)C[C@@H]2N=C(N)N)[C@H](N)[C@@H](O)[C@@H]1O | 5.6 | – | – | – | – | –
3 | NC[C@H]1O[C@H](O[C@H]2[C@H](O)[C@@H](O)[C@H](N=C(N)N)C[C@@H]2N)[C@H](N=C(N)N)[C@@H](O)[C@@H]1O | 5.3 | – | – | – | – | –
4 | NC(N)=NC[C@H]1O[C@H](O[C@H]2[C@H](O)[C@@H](O)[C@H](N)C[C@@H]2N)[C@H](N=C(N)N)[C@@H](O)[C@@H]1O | 7.7 | – | – | – | – | –
5 | NC[C@H]1O[C@H](O[C@H]2[C@H](O)[C@@H](O)[C@H](N)C[C@@H]2N=C(N)N)[C@H](N)[C@@H](O)[C@@H]1O | 5.2 | – | – | – | – | –
6 | NC[C@H]1O[C@H](O[C@H]2[C@H](O)[C@@H](O)[C@H](N)C[C@@H]2N=C(N)N)[C@H](N=C(N)N)[C@@H](O)[C@@H]1O | 0.7 | > 300 | > 300 | > 300 | > 300 | > 300
7 | N=C(N)NC[C@H]1O[C@H](O[C@H]2[C@H](O)[C@@H](O)[C@H](NC(=N)N)C[C@@H]2NC(=N)N)[C@H](NC(=N)N)[C@@H](O)[C@@H]1O | 0.7 | > 300 | > 300 | > 300 | > 300 | > 300
8 | CO[C@@H]1[C@@H](OC)[C@H](N=C(N)N)C[C@H](N=C(N)N)[C@H]1O[C@H]1O[C@H](CN=C(N)N)[C@@H](OC)[C@H](OC)[C@H]1N=C(N)N | 1.5 | > 300 | > 300 | > 300 | > 300 | > 300
9 | NC(N)=NC[C@H]1O[C@H](O[C@H]2[C@H](O)[C@@H](O)[C@H](N)C[C@@H]2N=C(N)N)[C@H](N=C(N)N)[C@@H](O)[C@@H]1O | 9.2 | – | – | – | – | –
10 | NC(N)=NC[C@H]1O[C@H](O[C@H]2[C@H](O)[C@@H](O)[C@H](N=C(N)N)C[C@@H]2N)[C@H](N=C(N)N)[C@@H](O)[C@@H]1O | 3.1 | – | – | – | – | –
11 | NC(N)=NC[C@H]1O[C@H](O[C@H]2[C@H](O)[C@@H](O)[C@H](N)C[C@@H]2N)[C@H](N)[C@@H](O)[C@@H]1O | 24.3 | – | – | – | – | –
12 | NC(N)=NC[C@H]1O[C@H](O[C@H]2[C@H](O)[C@@H](O)[C@H](N=C(N)N)C[C@@H]2N=C(N)N)[C@H](N)[C@@H](O)[C@@H]1O | 8.7 | – | – | – | – | –
13 | NC(N)=NC[C@H]1O[C@H](O[C@H]2[C@H](O)[C@@H](O)[C@H](N)C[C@@H]2N=C(N)N)[C@H](N)[C@@H](O)[C@@H]1O | 8.8 | – | – | – | – | –
14 | NC[C@H]1O[C@H](O[C@H]2[C@H](O)[C@@H](O)[C@H](N=C(N)N)C[C@@H]2N)[C@H](N)[C@@H](O)[C@@H]1O | 5 | – | – | – | – | –
15 | NC[C@H]1O[C@H](O[C@H]2[C@H](O)[C@@H](O)[C@H](N)C[C@@H]2N)[C@H](N=C(N)N)[C@@H](O)[C@@H]1O | 10.9 | – | – | – | – | –
16 | NC[C@H]1O[C@H](O[C@H]2[C@H](O)[C@@H](O)[C@H](N=C(N)N)C[C@@H]2N=C(N)N)[C@H](N=C(N)N)[C@@H](O)[C@@H]1O | 0.5 | > 300 | > 300 | > 300 | > 300 | > 300
